Test results reported in the NIST ThermoML archive (doi:10.1016/j.jct.2012.11.032).

Assay: xn = mol fraction of the nth substance listed
Conditions: 101 kPa, Liquid; for mass density: Vibrating tube method; for speed of sound: Sing-around technique in a fixed-path interferometer

CCCCCCCC[n+]1ccn(C)c1.[Cl-] [1-methyl-3-octylimidazolium chloride] + O
Conditions	mass density, 288 K [kg/m3]	mass density, 293 K [kg/m3]	speed of sound, 293 K [m/s]	speed of sound, 298 K [m/s]
x1 = 0.000276	–	998.326	1485.5	1499.5
x1 = 0.000495	–	998.392	1487.7	1501.5
x1 = 0.000781	–	998.497	1490.3	1503.9
x1 = 0.00102	–	998.584	1492.6	1506.1
x1 = 0.0013	–	998.69	1495.3	1508.5
x1 = 0.001503	–	998.751	1497.2	1510.3
x1 = 0.001892	–	998.879	1500.8	1513.6
x1 = 0.002073	–	998.946	1502.5	1515.2
x1 = 0.002376	–	999.051	1505.2	1517.6
x1 = 0.00261	–	999.124	1507.3	1519.6
x1 = 0.002774	–	999.173	1508.7	1520.8
x1 = 0.003111	1000.35	999.291	1511.6	1523.5
x1 = 0.003716	1000.58	999.491	1516.5	1527.9
x1 = 0.003899	1000.64	999.54	1517.8	1529.1
x1 = 0.004079	1000.72	999.608	1519.3	1530.5
x1 = 0.004181	1000.75	999.636	1520.1	1531.2
x1 = 0.004462	1000.85	999.721	1522.3	1533.1
x1 = 0.004601	1000.9	999.764	1523.3	1534
x1 = 0.004981	1001.04	999.873	1525.9	1536.3
x1 = 0.005198	1001.12	999.935	1527.2	1537.5
x1 = 0.005607	1001.27	1000.06	1529.9	1539.8
x1 = 0.005782	1001.32	1000.1	1530.9	1540.7
